The values that follow come from PubChem BioAssay AID2305 (GlaxoSmithKline (GSK), 2010).

Values joined by “and” are separate entries in the source; they are usually repeats but may differ in a detail not shown here. Equal entries are not always repeated.

In this assay the test system is P. falciparum 3D7 growth, pLDH absorbance. In words: P. falciparum 3D7 growth inhibition, dose response, strain 3D7 (AID 2305).

In the case of `Cc1cccc(-c2nn(-c3ccccc3)c3[nH]c(=O)c(CN4CCSCC4)cc23)c1`, the half-maximal inhibitory concentration (IC50) (in general, the concentration that gives 50% inhibition) is 1010 nM.

`O=C(NCc1cccs1)[C@H](Cc1ccccc1)Nc1ccnc(NCC2CCCCC2)n1` gave an IC50 of 1050 nM.

For `Cc1cc(N[C@@H](Cc2ccccc2)C(=O)NCc2cccs2)nc(NCCc2ccccc2)n1`, the IC50 turned out to be 790 nM.

Molecule `c1cc2c3c(cccc3c1)NC(CCCCCCCCC1=Nc3cccc4cccc(c34)N1)=N2` showed an IC50 of 830 nM.

As for `CC(=O)Nc1ccc(COc2ccc(Nc3ccnc4cc(-c5ccccn5)ccc34)cc2)cc1`, the IC50 was found to be 200 nM.

Take `Cn1nc(-c2ccc(S(=O)(=O)NC3CCC(CN4CCC(c5c[nH]c6ccccc56)CC4)CC3)s2)cc1C(F)(F)F` (stereo not drawn): the IC50 is 840 nM and 820 nM.

Molecule `CCN(CC)CCNC(=O)c1ccc(Nc2ncc([N+](=O)[O-])c(Nc3ccccc3OC)n2)cc1` had an IC50 of 140 nM.

As for `Clc1ccc(-c2[nH]c3ccccc3c2CN2CCC(N3CCCCC3)CC2)cc1`, the half-maximal inhibitory concentration (IC50) came to 1060 nM.

`Cc1cc(C)c2cc(CNCCCNc3nc4ccccc4[nH]3)[nH]c2c1` came in with an IC50 of 770 nM.

`O=C(Nc1ccc(F)cc1)NC1CCN(CCCCCNC(=O)[C@@H]2C[C@H]2c2ccc(Cl)c(Cl)c2)CC1` yielded an IC50 of 990 nM.

As to `CCS(=O)(=O)c1ccc(-c2cnc3[nH]cc(-c4ccc(N)cc4)c3c2)cc1`, the IC50 was determined as 850 nM.

The molecule `O=C(NC1CCN(Cc2ccccc2O)C1)c1ccc(Cl)c(Cl)c1` (stereo not drawn) came in with an IC50 of 890 nM.

For `CCC(C)(C)c1ccc(Oc2ccc(NC(=O)Nc3ccc(Cl)c(Cl)c3)cc2)cc1`, the half-maximal inhibitory concentration (IC50) came to 700 nM.

In turn, `CS(=O)(=O)CCNCc1nc(-c2ccc3ncnc(Nc4ccc(OCc5cccc(F)c5)c(Cl)c4)c3c2)cs1` returned an IC50 of 770 nM.

The molecule `Cc1cc(Nc2ccccc2)nc(NCCOc2ccccc2)n1` displayed a half-inhibitory concentration (IC50) of 730 nM.

`CCCCCCc1c(C)[nH]c2cc(OC)ccc2c1=O` showed a concentration for half-maximal inhibition (IC50) of 120 nM.

Take `Cc1cccc2[nH]c(-c3ccc(-c4ccc(NC(=O)CN5CCN(C)CC5)cc4)s3)nc12`: the IC50 was 1020 nM.

With `COc1c(C2CCN(CCCCNC(=O)c3ccc(-c4ccc(C(=O)C(F)(F)F)cc4)cc3)CC2)ccc2c1CCCC2`, the IC50 is 1100 nM.

`CCC(Cc1cnc2nc(N)nc(N)c2n1)c1ccc(C(=O)N[C@@H](CCC(=O)O)C(=O)O)cc1` (stereo partly drawn): the concentration for half-maximal inhibition (IC50) stood at 40 nM.

In the case of `CC(=O)N(Cc1ccc(CC(C)NCCc2cccc(Cl)c2)cc1)Cc1ccc(CC(C)NCCc2cccc(Cl)c2)cc1` (stereo not drawn), the IC50 was found to be 780 nM.

As to `Cc1cc(N[C@@H](CC(C)C)C(=O)NCCCOC(C)C)nc(NCCc2ccc(F)cc2)n1`, the IC50 amounted to 1250 nM.

In turn, `C=CCOC(=O)N1CCC(CNCc2ccc(-c3ccc(-c4nc5ccccc5[nH]4)s3)cc2)C1` (stereo not drawn) gave an IC50 of 230 nM.

For `O=C(/C=C/c1ccc(Cl)c(Cl)c1)NC1CCC(CN2CCC(c3c[nH]c4cc(O)ccc34)CC2)CC1` (stereo not drawn), the IC50 was 810 nM.

As for `COc1cc(F)c2nccc([C@@H](O)CN3CCC(NCc4ccc5c(n4)NC(=O)CS5)CC3)c2c1`, the IC50 turned out to be 560 nM.

In the case of `O=C(c1ccco1)c1cn(CCOc2ccccc2)c2ccccc12`, the IC50 amounted to 750 nM.

`O=C1c2ccccc2C(=O)N1c1ccc(S(=O)(=O)N2CCOCC2)cc1` displayed an IC50 of 1260 nM.

`O=C(NCCCCN1CCC(c2ccc(Br)cc2)CC1)c1ccc(NC(=O)c2ccc(Cl)cc2)cc1` came in with an IC50 of 710 nM.

Take `COc1ccc(CNCc2cccc(-c3csc(-c4nc5ccccc5[nH]4)c3)c2)cc1`: the IC50 was found to be 650 nM.

`N#Cc1ccc(NC(=Nc2ccccc2Br)N(C2CCCCC2)C2CCCCC2)c(O)c1` had an IC50 of 780 nM.

In turn, `Cc1ccc(O)cc1C[C@@H]1C(=O)CC[C@@]2(C)[C@H]1CC[C@]2(C)O` displayed an IC50 of 960 nM.

In the case of `CN(C)c1nc2cc(-n3cnc4cc(-c5ccc(Cl)cc5)sc4c3=O)ccc2n1CCCN1CCCCC1`, the IC50 stood at 840 nM.

In turn, `Cc1cccc2[nH]c(-c3ccc(-c4ccc(C(=O)NCCc5cn(C)cn5)cc4)s3)nc12` had an IC50 of 960 nM.

`Cc1ccccc1OCCCN1CCN(CC(c2ccc(F)cc2)N2CCN(C(C)C)CC2)CC1` (stereo not drawn) displayed an IC50 of 1410 nM.
